Laboratory results: US4208426A, “Pyranochromone derivatives and therapeutic composition comprising same for treatment of allergic diseases” (Eisai Co., Ltd., priority 1977, dated 1980)

Assays:
homologous PCA reaction = assay: Homologous passive cutaneous anaphylaxis (PCA) reaction; format: in vivo, rat (SD (Sprague-Dawley) strain); settings: rat; for Inhibition effect of PCA reaction: oral
Method: Anti-egg albumin rat serum in amount of 0.1 ml was intracutaneously injected to the shaved back of a mail rat of SD (Sprague-Dawley) strain weighing 200±30 g. The egg-albumin as antigen in amount of 5 mg/Kg were intravenously injected, together with 40 mg/Kg of dye (Evans blue) 24 hours after antiserum injection. The test materials were given at the respective times before antigen injection as 5% suspension in gum arabic in the case of oral administration (p. o.), while as a solution in physiological salt solution in the case of the intravenous injection (i. v.). The rat was sacrificed 30 minutes after the injection of the antigen, and the skin was removed. The amount of the dye leaked at the reaction locus was measured by extraction method according to Katayama et al.; Microbiol. Immunol. 22, 89-101 (1978), to determine the inhibiting rate on the homologous PCA reaction. There were elected, as the control, cromoglycate and ethyl 6,7-dihydro-6-methyl-8H-pyrano[3,2-g]chromone-2-carboxylate which are known in the art.
Regarding 6,7-dihydro-6,8,8,10-tetramethyl-8H-pyrano[3,2-g] chromone-2-carboxylic acid of this invention, there were determined, in the same manner, inhibition effect of PCA reaction when oral administration was carried out.

[1] = cited from earlier work
[2] = system: actively sensitized rat peritoneal mast cells; assay: Histamine release from actively sensitized rat peritoneal mast cells mediated by antigen-antibody reaction; format: cell-based, rat (SD strain); settings: Mast cell, egg-albumine 10 μg/ml, 37° C., read-out: Inhibition rate of histamine release
Method: (2) Histamine release from actively sensitized rat peritoneal mast cells mediated by antigen-antibody reaction
A male rate of SD strain weighing 200-400 g was used in this experiment. The sensitization of rats was performed by the method according to Kusner et al.; J. Pharmcol. & Exper. Ther, 184, 41-44 (1973). The mast cells were isolated 14 days after the sensitization by the method according to Johnson, et al.; Am. J. Physiol. 216, 453-459 (1969). The number of the mast cells was adjusted to 2×10^5 /ml. Each one milliliter of the cell suspension was divisionally poured into siliconized test tubes, and placed in an incubator adjusted to 37° C. The egg-albumine, as antigen, was added thereto at the final concentration of 10 μg/ml. At the same time of the addition of antigen, there is added sodium 6,7-dihydro-6,8,8,10-tetramethyl-8H-pyrano[3,2-g] chromone-2-carboxylate according to this invention in the respective concentrations.
The amount of histamine released from the mast cells was determined fluorimetrically according to Suzuki's method [Keio Igaku, 50, 263-270 (1973) Japan].

## CCOC(=O)c1cc(=O)c2c(C)c3c(c(C)c2o1)OC(C)(C)C(C)C3 (stereo not shown) [Ethyl 6,7-dihydro-5,7,8,8,10-pentamethyl-8H-pyrano[3,2-g]chromone-2-carboxylate]
Homologous PCA reaction; 20 mg/Kg p.o., before one hour
  Inhibition rate of PCA reaction: 47.9%

## Cc1c2c(cc3c(=O)cc(C(=O)O)oc13)C(C)CC(C)(C)O2 (stereo not shown) [6,7-Dihydro-6,8,8,10-tetramethyl-8H-pyrano [3,2-g] chromone-2-carboxylic acid]
Homologous PCA reaction; oral administration
  Inhibition effect of PCA reaction, dose dependence: dose-dependent inhibiting effect
  Time of administration before antigen with the most remarkable inhibition effect of PCA reaction: 15 to 30 min
Homologous PCA reaction; 1 mg/Kg, before 5 minutes
  Inhibition effect of PCA reaction: 15.1%
Homologous PCA reaction; 3 mg/Kg, before 5 minutes
  Inhibition effect of PCA reaction: 54.8%
Homologous PCA reaction; 10 mg/Kg, before 2 minutes
  Inhibition effect of PCA reaction: 44.1%
Homologous PCA reaction; 10 mg/Kg, before 5 minutes (dose series)
  Inhibition effect of PCA reaction: 78.5%
Homologous PCA reaction; 10 mg/Kg, before 5 minutes (time-course series)
  Inhibition effect of PCA reaction: 62.2%
Homologous PCA reaction; 10 mg/Kg, before 15 minutes
  Inhibition effect of PCA reaction: 82.0%
Homologous PCA reaction; 10 mg/Kg, before 30 minutes
  Inhibition effect of PCA reaction: 84.3%
Homologous PCA reaction; 10 mg/Kg, before 60 minutes
  Inhibition effect of PCA reaction: 54.3%
Homologous PCA reaction; 30 mg/Kg, before 5 minutes
  Inhibition effect of PCA reaction: 90.3%

## CCOC(=O)c1cc(=O)c2c(C)c3c(c(CC)c2o1)OC(C)(C)CC3C (stereo not shown) [Ethyl 6,7-dihydro-10-ethyl-5,6,8,8-tetramethyl-8H-pyrano[3,2-g]chromone-2-carboxylate]
Homologous PCA reaction; 20 mg/Kg p.o., before one hour
  Inhibition rate of PCA reaction: 64.4%

## CCOC(=O)c1cc(=O)c2cc3c(cc2o1)OCCC3C (stereo not shown) [ethyl 6,7-dihydro-6-methyl-8H-pyrano[3,2-g]chromone-2-carboxylate, reference compound]
Homologous PCA reaction; 20 mg/Kg p.o., before one hour
  Inhibition rate of PCA reaction: 23.7%

## O=C(O)c1cc(=O)c2c(OCC(O)COc3cccc4oc(C(=O)O)cc(=O)c34)cccc2o1 [Chromoglycate, reference compound]
Homologous PCA reaction; 6 mg/Kg i.v., at the same time
  Inhibition rate of PCA reaction: 88.6%
Homologous PCA reaction; 20 mg/Kg p.o., before one hour
  Inhibition rate of PCA reaction: 0%
[1]
  Effect on oral administration: not effective when it is orally administered

## CCOC(=O)c1cc(=O)c2cc3c(c(OC)c2o1)OC(C)(C)CC3C (stereo not shown) [Ethyl 6,7-dihydro-10-methoxy-6,8,8-trimethyl-8H-pyrano [3,2-g] chromone-2-carboxylate]
Homologous PCA reaction; 20 mg/Kg p.o., before one hour
  Inhibition rate of PCA reaction: 62.2%

## Cc1c2c(cc3c(=O)cc(C(=O)O)oc13)C(C)CC(C)(C)O2 (stereo not shown) [Sodium 6,7-dihydro-6,8,8,10-tetramethyl-8H-pyrano [3,2-g] chromone-2-carboxylate]
Homologous PCA reaction; 0.4 mg/Kg i.v., at the same time
  Inhibition rate of PCA reaction: 65.2%
Homologous PCA reaction; 20 mg/Kg p.o., before one hour
  Inhibition rate of PCA reaction: 64.9%
[2]; 0.2 μM
  inhibition at 0.2 µM: 48.2%
[2]; 1.0 μM
  inhibition at 1 µM: 66.1%
[2]; 2.0 μM
  inhibition at 2 µM: 73.2%
[2]; 10.0 μM
  inhibition at 10 µM: 60.7%

## CCOC(=O)c1cc(=O)c2cc3c(c(C)c2o1)OC(C)(C)CC3C (stereo not shown) [Ethyl 6,7-dihydro-6,8,8,10-tetramethyl-8H-pyrano [3,2-g] chromone-2-carboxylate]
Homologous PCA reaction; 20 mg/Kg p.o., before one hour
  Inhibition rate of PCA reaction: 63.8%
